Key:
[1] = biological target: T1, Furin (108-574-Tev-Flag-His) enzyme (Homo sapiens, UniProt P09958); assay: Furin enzyme assay; type: biochemical; conditions: for IC50: read-out: furin enzyme pIC50 (converted)
T1 construct: Furin (108-574-Tev-Flag-His) enzyme was expressed and purified from CHO cells; TEV cleavage site (C); FLAG (C); His (C); made in house; host or cells: CHO cells
Method in brief: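 CHO-expressed, purified furin construct at 40 pM in 100 mM HEPES pH7.5, 1 mM CaCl2, 0.005% Triton X-100. Eleven-point 1:3 series, 0.00017–10 μM final, incubated 2 h at room temperature and read on Envision. pXC50 from four-parameter fit.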

[2] = biological target: T2, furin (endogenous protease) in U20S cells (Homo sapiens, UniProt P09958); assay: Furin cell-based assay (image-based, Golgi-targeted GFP with BMP10 furin/PCSK cleavage site); conditions: 24-hour incubation, read-out: furin golgi cell pXC50 (converted);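 note: Read-out is mean GFP fluorescence of Golgi puncta per cell by high-content imaging, retained when furin inhibited, over an eleven-point 0.00017–10 µM series, four-parameter fit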
T2 construct: the endogenous protease cleaves GFP; endogenous in cells; host or cells: U2OS cells transduced with a BacMam reporter
T2 sequence (P09958 108-794): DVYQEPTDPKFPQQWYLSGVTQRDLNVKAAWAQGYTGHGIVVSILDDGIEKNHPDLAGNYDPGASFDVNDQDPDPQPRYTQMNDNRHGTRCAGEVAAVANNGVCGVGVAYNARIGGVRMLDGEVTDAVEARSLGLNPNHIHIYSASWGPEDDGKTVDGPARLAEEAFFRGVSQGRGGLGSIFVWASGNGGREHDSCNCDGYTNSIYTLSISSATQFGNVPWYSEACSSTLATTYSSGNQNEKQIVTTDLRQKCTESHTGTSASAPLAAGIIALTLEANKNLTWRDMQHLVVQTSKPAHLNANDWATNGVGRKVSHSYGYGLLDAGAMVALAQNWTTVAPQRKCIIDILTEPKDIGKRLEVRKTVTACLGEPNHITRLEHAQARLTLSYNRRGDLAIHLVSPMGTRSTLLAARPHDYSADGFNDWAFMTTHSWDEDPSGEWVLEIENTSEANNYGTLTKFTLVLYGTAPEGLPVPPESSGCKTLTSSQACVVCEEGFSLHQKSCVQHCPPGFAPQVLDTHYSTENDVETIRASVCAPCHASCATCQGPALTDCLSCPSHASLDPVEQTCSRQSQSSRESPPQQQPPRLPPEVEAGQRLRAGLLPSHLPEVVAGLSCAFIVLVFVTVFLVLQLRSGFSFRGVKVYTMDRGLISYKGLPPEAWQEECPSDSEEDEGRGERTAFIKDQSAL

T1 sequence (P09958 108-574): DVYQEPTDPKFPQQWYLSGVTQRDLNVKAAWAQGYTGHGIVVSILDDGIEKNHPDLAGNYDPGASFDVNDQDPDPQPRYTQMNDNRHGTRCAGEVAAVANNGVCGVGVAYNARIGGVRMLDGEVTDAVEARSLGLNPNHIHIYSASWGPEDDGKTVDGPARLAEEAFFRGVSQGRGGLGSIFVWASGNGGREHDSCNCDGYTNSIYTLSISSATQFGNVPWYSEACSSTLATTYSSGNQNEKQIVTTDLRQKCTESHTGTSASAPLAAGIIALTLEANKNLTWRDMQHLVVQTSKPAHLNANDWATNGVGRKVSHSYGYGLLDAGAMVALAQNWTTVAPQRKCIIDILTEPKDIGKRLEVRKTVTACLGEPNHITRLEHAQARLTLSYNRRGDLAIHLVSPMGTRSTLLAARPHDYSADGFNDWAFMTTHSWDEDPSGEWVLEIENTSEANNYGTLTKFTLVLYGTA

| Compound | furin enzyme pIC50 [1] | EC50 [2] [nM] | IC50 [1] [nM] |
| --- | --- | --- | --- |
| COCCN1CCN(c2ncc(Oc3cc(CN4CCC(CC(=O)O)CC4)cc(-c4cc(Cl)cc(Cl)c4)n3)cn2)CC1 [Example 247, 2-(1-((2-(3,5-dichlorophenyl)-6-((2-(4-(2-methoxyethyl)piperazin-1-yl)pyrimidin-5-yl)oxy)pyridin-4-yl)methyl)piperidin-4-yl)acetic acid] | 8.5 | 31.6 |  |
| CC(=O)NCC1CCN(Cc2cc(Oc3ccc(N4CCN(CCCC(=O)O)CC4)nc3)nc(-c3cc(Cl)cc(Cl)c3)c2)CC1 [Example 249, 4-(4-(5-((4-((4-(acetamidomethyl)piperidin-1-yl)methyl)-6-(3,5-dichlorophenyl)pyridin-2-yl)oxy)pyridin-2-yl)piperazin-1-yl)butanoic acid] | 9.1 | 12.6 |  |
| COCCN1CCN(c2ccc(Oc3cc(CN4CCC(CNC(C)=O)CC4)cc(-c4cc(Cl)cc(Cl)c4)n3)cn2)CC1 [Example 250, N-((1-((2-(3,5-dichlorophenyl)-6-((6-(4-(2-methoxyethyl)piperazin-1-yl)pyridin-3-yl)oxy)pyridin-4-yl)methyl)piperidin-4-yl)methyl)acetamide] | 8.9 | < 0.794 |  |
| NS(=O)(=O)CCCN1CCN(c2ccc(Oc3cc(CN4CCC(CC(=O)O)CC4)cc(-c4cc(Cl)cc(Cl)c4)n3)cn2)CC1 [Example 252, 2-(1-((2-(3,5-dichlorophenyl)-6-((6-(4-(3-sulfamoylpropyl)piperazin-1-yl)pyridin-3-yl)oxy)pyridin-4-yl)methyl)piperidin-4-yl)acetic acid] | 8.5 | 31.6 |  |
| CNC(=O)NCC1CCN(Cc2cc(Oc3ccc(N4CCN(CCOC)CC4)nc3)nc(-c3cc(Cl)cc(Cl)c3)c2)CC1 [Example 254, 1-((1-((2-(3,5-dichlorophenyl)-6-((6-(4-(2-methoxyethyl)piperazin-1-yl)pyridin-3-yl)oxy)pyridin-4-yl)methyl)piperidin-4-yl)methyl)-3-methylurea] | 8.7 | 3.16 |  |
| CC(=O)NCC1CCN(Cc2cc(Oc3ccc(N4CCN(CCC(=O)O)CC4)nc3)cc(-c3cc(Cl)cc(Cl)c3)c2)CC1 [Example 258, 3-(4-(5-((5-((4-(acetamidomethyl)piperidin-1-yl)methyl)-3′,5′-dichloro-[1,1′-biphenyl]-3-yl)oxy)pyridin-2-yl)piperazin-1-yl)propanoic acid] | 9.6 | 31.6 |  |
| CNC(=O)NCC1(O)CCN(Cc2cc(Oc3cnc(N4CCN(CCC(N)=O)CC4)nc3)nc(-c3cc(Cl)cc(Cl)c3)c2)CC1 [Example 265, 3-(4-(5-((6-(3,5-dichlorophenyl)-4-((4-hydroxy-4-((3-methylureido)methyl)piperidin-1-yl)methyl)pyridin-2-yl)oxy)pyrimidin-2-yl)piperazin-1-yl)propanamide] | 9.4 | 7.94 |  |
| CC(=O)NCC1CCN(Cc2cc(Oc3cnc(N4CCN(CCC(=O)O)CC4)c(F)c3)nc(-c3cc(Cl)cc(Cl)c3)c2)CC1 [Example 266, 3-(4-(5-((4-((4-(acetamidomethyl)piperidin-1-yl)methyl)-6-(3,5-dichlorophenyl)pyridin-2-yl)oxy)-3-fluoropyridin-2-yl)piperazin-1-yl)propanoic acid] | 8.7 | 50.1 |  |
| CCNC(=O)CC1CCN(Cc2cc(Oc3cnc(N4CCN(CCC(=O)O)CC4)nc3)nc(-c3cc(Cl)cc(Cl)c3)c2)CC1 [Example 268, 3-(4-(5-((6-(3,5-dichlorophenyl)-4-((4-(2-(ethylamino)-2-oxoethyl)piperidin-1-yl)methyl)pyridin-2-yl)oxy)pyrimidin-2-yl)piperazin-1-yl)propanoic acid] | 9.1 | 63.1 |  |
| CC(CC1CCN(Cc2cc(Oc3cnc(N4CCNCC4)nc3)nc(-c3cc(Cl)cc(Cl)c3)c2)CC1)C(=O)O (stereo not shown) [Example 269, 3-(1-((2-(3,5-dichlorophenyl)-6-((2-(piperazin-1-yl)pyrimidin-5-yl)oxy)pyridin-4-yl)methyl)piperidin-4-yl)-2-methylpropanoic acid] | 8.5 | 25.1 |  |
| CNC(=O)NCC1CCN(Cc2cc(Oc3cnc(N4CCN(CCC(=O)O)CC4)c(F)c3)nc(-c3cc(Cl)cc(Cl)c3)c2)CC1 [Example 270, 3-(4-(5-((6-(3,5-dichlorophenyl)-4-((4-((3-methylureido)methyl)piperidin-1-yl)methyl)pyridin-2-yl)oxy)-3-fluoropyridin-2-yl)piperazin-1-yl)propanoic acid] | 9.5 | 25.1 |  |

Second part, the molecule after the results:

| furin enzyme pIC50 [1] | EC50 [2] [nM] | IC50 [1] [nM] | Compound |
| --- | --- | --- | --- |
| 8.9 | 15.8 |  | NS(=O)(=O)CCCN1CCN(c2ncc(Oc3cc(CN4CCC(CC(=O)O)CC4)cc(-c4cc(Cl)cc(Cl)c4)n3)cn2)CC1 [Example 246, 2-(1-((2-(3,5-dichlorophenyl)-6-((2-(4-(3-sulfamoylpropyl)piperazin-1-yl)pyrimidin-5-yl)oxy)pyridin-4-yl)methyl)piperidin-4-yl)acetic acid] |
|  | 25.1 | 0.0316 | CNC(=O)OCC1CCN(Cc2cc(Oc3cnc(N4CCN(CCC(=O)O)CC4)nc3)nc(-c3cc(Cl)cc(Cl)c3)c2)CC1 [Example 248, 3-(4-(5-((6-(3,5-dichlorophenyl)-4-((4-(((methylcarbamoyl)oxy)methyl)piperidin-1-yl)methyl)pyridin-2-yl)oxy)pyrimidin-2-yl)piperazin-1-yl)propanoic acid] |
|  | 5.01 | < 0.158 | CC(=O)NCC1CCN(Cc2cc(Oc3ccc(N4CCN(CCCS(C)(=O)=O)CC4)nc3)nc(-c3cc(Cl)cc(Cl)c3)c2)CC1 [Example 251, N-((1-((2-(3,5-dichlorophenyl)-6-((6-(4-(3-(methylsulfonyl)propyl)piperazin-1-yl)pyridin-3-yl)oxy)pyridin-4-yl)methyl)piperidin-4-yl)methyl)acetamide] |
| 9.7 | 2.51 |  | CC(=O)NCC1CCN(Cc2cc(Oc3cnc(N4CCN(CCCS(N)(=O)=O)CC4)nc3)nc(-c3cc(Cl)cc(Cl)c3)c2)CC1 [Example 253, N-((1-((2-(3,5-dichlorophenyl)-6-((2-(4-(3-sulfamoylpropyl)piperazin-1-yl)pyrimidin-5-yl)oxy)pyridin-4-yl)methyl)piperidin-4-yl)methyl)acetamide] |
| 9.5 | 6.31 |  | CNC(=O)NCC1CCN(Cc2cc(Oc3ccc(N4CCN(CCCS(C)(=O)=O)CC4)nc3)nc(-c3cc(Cl)cc(Cl)c3)c2)CC1 [Example 255, 1-((1-((2-(3,5-dichlorophenyl)-6-((6-(4-(3-(methylsulfonyl)propyl)piperazin-1-yl)pyridin-3-yl)oxy)pyridin-4-yl)methyl)piperidin-4-yl)methyl)-3-methylurea] |
| 9.5 | 15.8 |  | CNC(=O)NCC1CCN(Cc2cc(Oc3cnc(N4CCN(CCC(=O)O)CC4)nc3)nc(-c3cc(Cl)cc(Cl)c3)c2)CC1 [Example 256, 3-(4-(5-((6-(3,5-dichlorophenyl)-4-((4-((3-methylureido)methyl)piperidin-1-yl)methyl)pyridin-2-yl)oxy)pyrimidin-2-yl)piperazin-1-yl)propanoic acid] |
| 10.1 | 5.01 |  | CNC(=O)NCC1CCN(Cc2cc(Oc3cnc(N4CCN(CCCS(C)(=O)=O)CC4)nc3)nc(-c3cc(Cl)cc(Cl)c3)c2)CC1 [Example 257, 1-((1-((2-(3,5-dichlorophenyl)-6-((2-(4-(3-(methylsulfonyl)propyl)piper-1-yl)pyrimidin-5-yl)oxy)pyridin-4-yl)methyl)piperidin-4-yl)methyl)-3-methylurea] |
| 9.8 | 1.58 |  | CC(=O)NCC1CCN(Cc2cc(Oc3cnc(N4CCN(CCCS(C)(=O)=O)CC4)nc3)nc(-c3cc(Cl)cc(Cl)c3)c2)CC1 [Example 259, N-((1-((2-(3,5-dichlorophenyl)-6-((2-(4-(3-(methylsulfonyl)propyl)piperazin-1-yl)pyrimidin-5-yl)oxy)pyridin-4-yl)methyl)piperidin-4-yl)methyl)acetamide] |
| 9.2 | 10 |  | CNC(=O)NCC1CCN(Cc2cc(Oc3cnc(N4CCN(CCC(N)=O)CC4)nc3)nc(-c3cc(Cl)cc(Cl)c3)c2)CC1 [Example 261, 3-(4-(5-((6-(3,5-dichlorophenyl)-4-((4-((3-methylureido)methyl)piperidin-1-yl)methyl)pyridin-2-yl)oxy)pyrimidin-2-yl)piperazin-1-yl)propanamide] |
| 9 | 0.316 |  | CNC(=O)NCC1CCN(Cc2cc(Oc3cnc(N4CCN(CCOC)CC4)nc3)nc(-c3cc(Cl)cc(Cl)c3)c2)CC1 [Example 262, 1-((1-((2-(3,5-dichlorophenyl)-6-((2-(4-(2-methoxyethyl)piperazin-1-yl)pyrimidin-5-yl)oxy)pyridin-4-yl)methyl)piperidin-4-yl)methyl)-3-methylurea] |
| 8.6 | 3.98 |  | CS(=O)(=O)CCCN1CCN(c2ccc(Oc3cc(CN4CCC(CC(N)=O)CC4)cc(-c4cc(Cl)cc(Cl)c4)n3)cn2)CC1 [Example 264, 2-(1-((2-(3,5-dichlorophenyl)-6-((6-(4-(3-(methylsulfonyl)propyl)piperazin-1-yl)pyridin-3-yl)oxy)pyridin-4-yl)methyl)piperidin-4-yl)acetamide] |
| 9.9 | 50.1 |  | CCOC(=O)NCC1CCN(Cc2cc(Oc3cnc(N4CCN(CCC(=O)O)CC4)nc3)nc(-c3cc(Cl)cc(Cl)c3)c2)CC1 [Example 267, 3-(4-(5-((6-(3,5-dichlorophenyl)-4-((4-(((ethoxycarbonyl)amino)methyl)piperidin-1-yl)methyl)pyridin-2-yl)oxy)pyrimidin-2-yl)piperazin-1-yl)propanoic acid] |
